Like-named read-outs stand apart in the source and are kept apart here.
Experiments:
Ishikawa cell lines = assay: In-vitro cytotoxicity (MTT cell viability assay); format: cell-based; details: Homo sapiens, read-out: IC50 values (Ishikawa cell lines, µM ± SD), in-vitro growth inhibition
Protocol: The cell growth inhibitory effects of the synthesised compounds were evaluated against Ishikawa cell lines. […] Forth, the synthesised compounds bearing a substituted phenyl ring at position 2 of the biaryl arm bearing benzopyrans were profiled for the cytotoxic effects. Noteworthy to mention that diverse substitutions with varied electronic effects viz fluorine (−I, +R), methoxy (−I, +R), and nitro (−I and − R) were made on the phenyl ring (position 2 of benzopyran). Also, the trimethoxy phenyl ring well established as an imperative structural feature of tubulin inhibitors was tethered to the benzopyran scaffold (20, 21).
Ishikawa cells (a human endometrial carcinoma of the epithelial cell) were kindly gifted by Dr. Geetanjali Sachdeva and Dr. Uddhav Chaudhari of National Institute for Research In Reproductive and Child Health (NIRRCH), Mumbai. […] The cells were maintained in RPMI medium supplemented with 10% Foetal bovine serum (FBS) and 100 IU/mL penicillin.
Mitochondrial activity was evaluated by MTT assay.[59] This assay is based on enzymatic reduction of the yellow-colored MTT dye to purple-colored formazan crystals by a variety of mitochondrial and cytosolic enzymes that are operational in viable cells. Briefly, […] (3000 cells/well) were seeded in 100 µL of medium into a 96-well plate and left to settle in a CO2 incubator. […] Then 150 μL of DMSO was added to each well to dissolve the formazan crystals. The optical density (OD) of each well was recorded using a microplate reader at a wavelength of 570 nm. The percentages of cell viability and growth inhibition were calculated according to the following equations. Cell viability (%) = [(OD of treated cells-OD of blank)/(OD of control-OD of blank) ×100].

[1] = Ishikawa cell lines, MTT, 48 h incubation, mean ± SD, at least three experiments

Compound	IC50 (Ishikawa cell lines; [1])	melting point	IC50 (Ishikawa cell lines; Ishikawa, 48 h)
COc1ccc(/C=C\c2cc(OC)c(OC)c(OC)c2)cc1O [Combretastatin, Combretastatin A-4, reference compound]	4.21 ± 0.78 µM		
O=c1cc(-c2ccccc2)oc2cc(-c3ccccc3)ccc12 [Compound 1, 2,7-diphenyl-4H-chromen-4-one]	3 ± 1.09 µM	153 to 157 °C	
O=c1cc(-c2ccccc2)oc2cc(-c3ccoc3)ccc12 [Compound 2, 7-(Furan-3-yl)-2-phenyl-4H-chromen-4-one]	1.5 ± 0.67 µM	163 to 167 °C	
O=c1cc(-c2ccccc2)oc2cc(-c3cccs3)ccc12 [Compound 3, 2-phenyl-7-(thiophen-2-yl)-4H-chromen-4-one]	2.1 ± 0.89 µM	186 to 189 °C	
O=c1cc(-c2ccccc2)oc2cc(-c3ccc4c(c3)OCCO4)ccc12 [Compound 4, 7–(2,3-dihydrobenzo[b][1,4]dioxin-6-yl)-2-phenyl-4H-chromen-4-one]	> 10 µM	181 to 184 °C	
O=c1cc(-c2ccccc2)oc2cc(-c3ccc4ncccc4c3)ccc12 [Compound 5, 2-phenyl-7-(quinolin-6-yl)-4H-chromen-4-one]	> 10 µM	136 to 140 °C	
O=c1cc(-c2ccccc2)oc2cc(-c3ccc4[nH]ccc4c3)ccc12 [Compound 6, 7-(1H-indol-5-yl)-2-phenyl-4H-chromen-4-one]	> 10 µM	246 to 249 °C	
COc1ccc(-c2cc(=O)c3ccc(-c4ccccc4)cc3o2)cc1 [Compound 7, 2–(4-methoxyphenyl)-7-phenyl-4H-chromen-4-one]	6.3 ± 1.08 µM	172 to 175 °C	
COc1ccc(-c2cc(=O)c3ccc(-c4ccoc4)cc3o2)cc1 [Compound 8, 7-(Furan-3-yl)-2–(4-methoxyphenyl)-4H-chromen-4-one]	3.2 ± 1.04 µM	173 to 176 °C	
COc1ccc(-c2cc(=O)c3ccc(-c4cccs4)cc3o2)cc1 [Compound 9, 2–(4-methoxyphenyl)-7-(thiophen-2-yl)-4H-chromen-4-one]	3 ± 0.785 µM	180 to 184 °C	
COc1ccc(-c2cc(=O)c3ccc(-c4ccc5c(c4)OCCO5)cc3o2)cc1 [Compound 10, 7–(2,3-dihydrobenzo[b][1,4]dioxin-6-yl)-2–(4-methoxyphenyl)-4H-chromen-4-one]	> 10 µM	183 to 186 °C	
COc1ccc(-c2cc(=O)c3ccc(-c4ccc5ncccc5c4)cc3o2)cc1 [Compound 11, 2–(4-methoxyphenyl)-7-(quinolin-6-yl)-4H-chromen-4-one]	> 10 µM	221 to 224 °C	
COc1ccc(-c2cc(=O)c3ccc(-c4ccc5[nH]ccc5c4)cc3o2)cc1 [Compound 12, 7-(1H-indol-5-yl)-2–(4-methoxyphenyl)-4H-chromen-4-one]	> 10 µM	129 to 132 °C	
O=c1cc(-c2ccc(F)cc2)oc2cc(-c3ccccc3)ccc12 [Compound 13, 2–(4-fluorophenyl)-7-phenyl-4H-chromen-4-one]	2.03 ± 1.1 µM	193 to 196 °C	
O=c1cc(-c2ccc(F)cc2)oc2cc(-c3cccs3)ccc12 [Compound 15, 2–(4-fluorophenyl)-7-(thiophen-2-yl)-4H-chromen-4-one]	1.5 ± 1.08 µM	202 to 205 °C	
O=c1cc(-c2ccc(F)cc2)oc2cc(-c3ccc4c(c3)OCCO4)ccc12 [Compound 16, 7–(2,3-dihydrobenzo[b][1,4]dioxin-6-yl)-2–(4-fluorophenyl)-4H-chromen-4-one]	> 10 µM	193 to 196 °C	
O=c1cc(-c2ccc(F)cc2)oc2cc(-c3ccc4ncccc4c3)ccc12 [Compound 17, 2–(4-fluorophenyl)-7-(quinolin-6-yl)-4H-chromen-4-one]	> 10 µM	236 to 240 °C	
O=c1cc(-c2ccc(F)cc2)oc2cc(-c3ccc4[nH]ccc4c3)ccc12 [Compound 18, 2–(4-fluorophenyl)-7-(1H-indol-5-yl)-4H-chromen-4-one]	> 10 µM	229 to 232 °C	
O=c1cc(-c2ccc([N+](=O)[O-])cc2)oc2cc(-c3ccc4[nH]ccc4c3)ccc12 [Compound 19, 7-(1H-indol-5-yl)-2–(4-nitrophenyl)-4H-chromen-4-one]	> 10 µM	255 to 258 °C	
COc1cc(-c2cc(=O)c3ccc(-c4ccc5ncccc5c4)cc3o2)cc(OC)c1OC [Compound 20, 7-(Quinolin-6-yl)-2–(3,4,5-trimethoxyphenyl)-4H-chromen-4-one]	> 10 µM	214 to 217 °C	
COc1cc(-c2cc(=O)c3ccc(-c4ccc5[nH]ccc5c4)cc3o2)cc(OC)c1OC [Compound 21, 7-(1H-indol-5-yl)-2–(3,4,5-trimethoxyphenyl)-4H-chromen-4-one]	> 10 µM	246 to 250 °C	
O=C(c1cc(Cc2n[nH]c(=O)c3ccccc23)ccc1F)N1CCN(C(=O)C2CC2)CC1 [Olaparib, reference compound]			3.91 ± 1.06 µM
O=c1cc(-c2ccccc2)oc2ccccc12 [X, reference compound]	> 10 µM		

— article PMC10627047, “Flavone-based dual PARP-Tubulin inhibitor manifesting efficacy against endometrial cancer” (Journal of Enzyme Inhibition and Medicinal Chemistry, 2023)
